Assay results: patent publication US20140212382A1, “PURINE MONOPHOSPHATE PRODRUGS FOR TREATMENT OF VIRAL INFECTIONS” (EMORY UNIVERSITY, priority 2011, published 2014)
Values belong to the molecule of their own block, whether it stands above or below them.

What was measured:
[1] = Cytotoxicity assay, PBM cells; format: cell-based; conditions: human
Experimental: (§1) The toxicity of the compounds was assessed in Vero, human PBM, CEM (human lymphoblastoid), and HepG2 cells, as described previously (see Schinazi R. F., Sommadossi J.-P., Saalmann V., Cannon D. L., Xie M.-Y., Hart G. C., Smith G. A. & Hahn E. F. Antimicrob. Agents Chemother. 1990, 34, 1061-67). Cycloheximide was included as positive cytotoxic control, and untreated cells exposed to solvent would be included as negative controls. The cytotoxicity IC50 was obtained from the concentration-response curve using the median effective method described previously (see Chou T.-C. & Talalay P. Adv. Enzyme Regul. 1984, 22, 27-55; Belen'kii M. S. & Schinazi R. F. Antiviral Res. 1994, 25, 1-11).

[2] = Cytotoxicity assay, Vero cells; format: cell-based; conditions: African green monkey
Experimental: as §1

[3] = Cytotoxicity assay, CEM cells; format: cell-based; conditions: human
Experimental: as §1

[4] = test system: MtDNA, HepG2 Hepatoma cells; experiment: Mitochondrial toxicity in HepG2 cells: mitochondrial DNA content; format: cell-based; conditions: HepG2 Hepatoma cells, 14 day assay; for % Inhibition MtDNA: 10 μM
Description: A real-time PCR assay to accurately quantify mitochondrial DNA content has been developed (see Stuyver L J, Lostia S, Adams M, Mathew J S, Pai B S, Grier J, Tharnish P M, Choi Y, Chong Y, Choo H, Chu C K, Otto M J, Schinazi R F. Antiviral activities and cellular toxicities of modified 2′,3′-dideoxy-2′,3′-didehydrocytidine analogs. Antimicrob. Agents Chemother. 2002; 46: 3854-60). This assay was used in all studies described in this application that determine the effect of nucleoside analogs on mitochondrial DNA content. In this assay, low-passage-number HepG2 cells were seeded at 5,000 cells/well in collagen-coated 96-well plates. Nucleoside monophosphate analogs were added to the medium to obtain final concentrations of 0 μM, 0.1 μM, 10 μM and 100 μM. On culture day 7, cellular nucleic acids were prepared by using commercially available columns (RNeasy 96 kit; Qiagen). […] The mitochondrial cytochrome c oxidase subunit II (COXII) gene and the β-actin or rRNA gene were amplified from 5 μl of the eluted nucleic acids using a multiplex Q-PCR protocol with suitable primers and probes for both target and reference amplifications. For COXII the following sense, probe and antisense primers are used, respectively: 5′-[…]-3′,5′-tetrachloro-6-carboxyfluorescein-[…]-TAMRA-3′ and 5′-[…]-3′. For exon 3 of the β-actin gene (GenBank accession number E01094) the sense, probe, and antisense primers are 5′-[…]-3′,5′-6-[…]-3′ and 5′-[…]-3′, respectively. The primers and probes for the rRNA gene are commercially available from Applied Biosystems. Since equal amplification efficiencies were obtained for all genes, the comparative CT method was used to investigate potential inhibition of mitochondrial DNA synthesis. The comparative CT method uses arithmetic formulas in which the amount of target (COXII gene) is normalized to the amount of an endogenous reference (the β-actin or rRNA gene) and is relative to a calibrator (a control with no drug at day 7). The arithmetic formula for this approach is given by 2-ΔΔCT, where ΔΔCT is (CT for average target test sample−CT for target control)−(CT for average reference test−CT for reference control) (see Johnson M R, K Wang, J B Smith, M J Heslin, R B Diasio. Quantitation of dihydropyrimidine dehydrogenase expression by real-time reverse transcription polymerase chain reaction. Anal. Biochem. 2000; 278:175-184). A decrease in mitochondrial DNA content in cells grown in the presence of drug would indicate mitochondrial toxicity.
(§2) The effect of compounds 8b-up, 12, and 8a on nuclear or mitochondrial DNA, or lactic acid production, in HepG2 Hepatoma cells was analyzed over a 14 day period. The procedure outlined in section (i) above was used for this analysis.

HepG2 Hepatoma cells = experiment: Lactic acid production in HepG2 cells; format: cell-based; conditions: 10 μM, 14 day assay
Experimental: The effect on the growth of HepG2 cells was determined by incubating cells in the presence of 0 μM, 0.1 μM, 1 μM, 10 μM and 100 μM drug. Cells (5×10^4 per well) were plated into 12-well cell culture clusters in minimum essential medium with nonessential amino acids supplemented with 10% fetal bovine serum, 1% sodium pyruvate, and 1% penicillin/streptomycin and incubated for 4 days at 37° C. At the end of the incubation period the cell number was determined using a hemocytometer. Also taught by Pan-Zhou X-R, Cui L, Zhou X-J, Sommadossi J-P, Darley-Usmer V M. “Differential effects of antiretroviral nucleoside analogs on mitochondrial function in HepG2 cells” Antimicrob. Agents Chemother. 2000; 44: 496-503. […] At day 4 the number of cells in each well was determined and the culture medium collected. The culture medium was filtered, and the lactic acid content in the medium determined using a colorimetric lactic acid assay (Sigma-Aldrich). Since lactic acid product can be considered a marker for impaired mitochondrial function, elevated levels of lactic acid production detected in cells grown in the presence of 2,6-diamino 2′-C-Me purine nucleoside monophosphate prodrug analogs would indicate a drug-induced cytotoxic effect.
The effect of compounds 8b-up, 12, and 8a on nuclear or mitochondrial DNA, or lactic acid production, in HepG2 Hepatoma cells was analyzed over a 14 day period. […]

HCV 5a chimera replicon = experiment: HCV replicon, 5a chimera; format: cell-based
HCV 2a replicon = experiment: HCV replicon, genotype 2a; format: cell-based
HCV 1b M414I replicon = experiment: HCV resistant replicon 1b M414I; format: cell-based
HCV 1b C316Y replicon = experiment: HCV resistant replicon 1b C316Y; format: cell-based
HCV 2b chimera replicon = experiment: HCV replicon, 2b chimera; format: cell-based
HCV 1b replicon = experiment: HCV replicon, genotype 1b; format: cell-based
HCV 3a chimera replicon = experiment: HCV replicon, 3a chimera; format: cell-based
HCV 1b S282T replicon = experiment: HCV resistant replicon 1b S282T; format: cell-based
HCV 4a chimera replicon = experiment: HCV replicon, 4a chimera; format: cell-based
HCV 1a replicon = experiment: HCV replicon, genotype 1a; format: cell-based
[5] = test system: HCV Replicon RNA in Huh 7 Clone B cells; experiment: HCV replicon assay; format: cell-based; conditions: HCV replicon assay
Experimental: Huh 7 Clone B cells containing HCV Replicon RNA were seeded in a 96-well plate at 5000 cells/well, and the compounds tested at 10 μM in triplicate immediately after seeding. Following five days incubation (37° C., 5% CO2), total cellular RNA was isolated using the versaGene RNA purification kit from Gentra. Replicon RNA and an internal control (TaqMan rRNA control reagents, Applied Biosystems) were amplified in a single step multiplex Real Time RT-PCR Assay. The antiviral effectiveness of the compounds was calculated by subtracting the threshold RT-PCR cycle of the test compound from the threshold RT-PCR cycle of the no-drug control (ΔCt HCV). A ΔCt of 3.3 equals a 1-log reduction (equal to 90% less starting material) in Replicon RNA levels. The cytotoxicity of the compounds was also calculated using the ΔCt rRNA values. (2′-C-Me-C) was used as the control. To determine EC90 and IC50 values^2, ΔCt: values were first converted into a fraction of the starting material,^3 and then were used to calculate the % inhibition. The data on three compounds (Compound 12, Compound 8a, and compound 8b-up) is shown below in Table 3.

adenosine deaminase = experiment: Adenosine deaminase assay; format: in vitro ADME; conditions: 7 minutes with 0.002 units of enzyme; 50 μM, pH 7.4, 25° C.
Experimental: To determine the propensity for deamination of the nucleosides and monophosphate prodrugs by adenosine deaminase, nucleoside analogues can be incubated with the commercially available purified enzyme, and the reaction can be followed spectrophotometrically. Typical reaction conditions involve preparing a solution containing 50 μM nucleoside analog in 0.5 mL 50 mM potassium phosphate (pH 7.4) at 25° C. The typical reaction time is 7 minutes with 0.002 units of enzyme, and 120 minutes with 0.2 units of enzyme. (The unit definition of adenosine deaminase is one unit will deaminate 1.0 μmol of adenosine to inosine per minute at pH 7.5 at 25° C.) Deoxyadenosine is typically used as a positive control. Deoxyadenosine is 59% deaminated under the given conditions in 7 minutes with 0.002 units of enzyme. Deoxyguanosine is typically used as a negative control. Optical density can be measured at 265 nm or 285 nm. The difference in optical density between the beginning and the end of the experiment is divided by the extinction coefficient, and then multiplied by the volume of the reaction to determine the number of mols of substrate transformed into product. Mols of product would be divided by mols of substrate equivalent to a 100% complete reaction then multiplied by 100 to obtain percent deamination. The limit of detection is typically 0.001 optical density units.

[6] = test system: nuclear DNA, HepG2 Hepatoma cells; experiment: Mitochondrial toxicity in HepG2 cells: nuclear DNA content; format: cell-based; conditions: 10 μM; HepG2 Hepatoma cells, 14 day assay
Experimental: This assay was used in all studies described in this application that determine the effect of nucleoside analogs on mitochondrial DNA content. In this assay, low-passage-number HepG2 cells were seeded at 5,000 cells/well in collagen-coated 96-well plates. […] On culture day 7, cellular nucleic acids were prepared by using commercially available columns (RNeasy 96 kit; Qiagen). […] The mitochondrial cytochrome c oxidase subunit II (COXII) gene and the β-actin or rRNA gene were amplified from 5 μl of the eluted nucleic acids using a multiplex Q-PCR protocol with suitable primers and probes for both target and reference amplifications. […] For exon 3 of the β-actin gene (GenBank accession number E01094) the sense, probe, and antisense primers are 5′-[…]-3′,5′-6-[…]-3′ and 5′-[…]-3′, respectively. The primers and probes for the rRNA gene are commercially available from Applied Biosystems. […] The comparative CT method uses arithmetic formulas in which the amount of target (COXII gene) is normalized to the amount of an endogenous reference (the β-actin or rRNA gene) and is relative to a calibrator (a control with no drug at day 7). The arithmetic formula for this approach is given by 2-ΔΔCT, where ΔΔCT is (CT for average target test sample−CT for target control)−(CT for average reference test−CT for reference control) (see Johnson M R, K Wang, J B Smith, M J Heslin, R B Diasio. Quantitation of dihydropyrimidine dehydrogenase expression by real-time reverse transcription polymerase chain reaction. Anal. Biochem. 2000; 278:175-184). A decrease in mitochondrial DNA content in cells grown in the presence of drug would indicate mitochondrial toxicity.
as §2

HepG2 cells = conditions: 10 μM; cited from earlier work

Compound: CC1(O)C(O)[C@@H](CO)O[C@H]1n1cnc2c(N)nc(N)nc21 (stereo partly shown) [drawing 52]
- CC50 ([1]; PBM cells): > 100 µM
- CC50 ([2]; Vero cells): > 100 µM
- CC50 ([3]; CEM lymphoblastoid cells): > 100 µM

Compound: CCOC(=O)[C@H](C)NP(=O)(OC[C@H]1O[C@@H](n2cnc3c(N)nc(N)nc32)C(C)(O)C1O)Oc1ccccc1 (stereo partly shown) [drawing 53]
- CC50 ([1]; PBM): > 100 µM
- CC50 ([2]; Vero): > 100 µM
- CC50 ([3]; CEM): > 100 µM

Compound: Nc1ccn([C@@H]2CS[C@H](CO)O2)c(=O)n1 [Compound 3TC, reference compound]
- % Inhibition MtDNA [4]: <1/<1%
- Lactic acid levels (% of control) ± SD (HepG2 Hepatoma cells): 91 ± 2.5 % of control

Compound: CCOC(=O)CCc1ccccc1OP(=O)(NC(C)C(=O)OCC)OC[C@H]1O[C@@H](n2cnc3c(N)nc(N)nc32)C(C)(O)C1O (single isomer, unassigned) [Compound 8b-up]
- Fold increase versus 1b WT at the EC90 (HCV 5a chimera replicon): ++ (++ = 1.1 to 2)
- Fold increase versus 1b WT at the EC90 (HCV 2a replicon): ++ (++ = 1.1 to 2)
- effect on nuclear or mitochondrial DNA or lactic acid production ([4]; up to 50 μM, summary also covers nuclear DNA and lactic acid): no significant effect
- Fold increase versus 1b WT at the EC90 (HCV 1b M414I replicon): +++ (+++ = 2.1 to 3)
- Fold increase versus 1b WT at the EC90 (HCV 1b C316Y replicon): ++ (++ = 1.1 to 2)
- Fold increase versus 1b WT at the EC90 (HCV 2b chimera replicon): ++ (++ = 1.1 to 2)
- Fold increase versus 1b WT at the EC90 (HCV 1b replicon): + (+ = 0.1 to 1)
- Fold increase versus 1b WT at the EC90 (HCV 3a chimera replicon): + (+ = 0.1 to 1)
- Fold increase versus 1b WT at the EC90 (HCV 1b S282T replicon): + (+ = 0.1 to 1)
- Fold increase versus 1b WT at the EC90 (HCV 4a chimera replicon): +++ (+++ = 2.1 to 3)
- Fold increase versus 1b WT at the EC90 (HCV 1a replicon): ++ (++ = 1.1 to 2)
- times more potent than 8b-down [5]: approximately 10

- percent deamination (adenosine deaminase): 59%
Compound: Nc1ncnc2c1ncn2[C@H]1C[C@H](O)[C@@H](CO)O1 [Deoxyadenosine]

Compound: Nc1ccn([C@H]2CC[C@@H](CO)O2)c(=O)n1 [ddC, reference compound]
- % Inhibition nuclear DNA [6]: 72%
- % Inhibition MtDNA [4]: 100%
- Lactic acid levels (% of control) ± SD (HepG2 Hepatoma cells): 220 ± 11 % of control

Compound: CCOC(=O)CCc1ccccc1OP(=O)(N[C@H](C)C(=O)OCC)OC[C@H]1O[C@@H](n2cnc3c(N)nc(N)nc32)C(C)(O)C1O (stereo partly shown) [drawing 54]
- CC50 ([1]; PBM): > 100 µM
- CC50 ([2]; Vero): > 100 µM
- CC50 ([3]; CEM): > 100 µM

Compound: O=c1[nH]c(=O)n([C@@H]2O[C@H](CO)[C@@H](O)[C@@H]2F)cc1I [fialuridine, 1,2′-deoxy-2′-fluoro-1-D-arabinofuranosly-5-iodo-uracil]
- morphological changes in mitochondria (electron micrographs) (HepG2 cells): presence of enlarged mitochondria with morphological changes consistent with mitochondrial dysfunction
